Results as given in US20110178174A1, “SALTS OF TRAMADOL AND IBUPROFEN AND THEIR CRYSTAL FORM IN THE TREATMENT OF PAIN” (LABORATORIOS DEL DR. ESTEVE, S.A., priority 2008, published 2011).

Columns and labels:
[1] = cited from earlier work
[2] = Thermogravimetric (TG) analysis, weight loss due to decomposition; format: physicochemical; settings: heated at 10° C./min from 30 to 500° C., under nitrogen (80 mL/min)
Protocol: Thermogravimetric analyses were recorded in a Mettler Toledo SDTA851e. Samples of 3-4 mg were weighted into 40 μL aluminium crucibles with a pinhole lid, and heated at 10° C./min from 30 to 500° C., under nitrogen (80 mL/min).

Row | Compound | amount of ibuprofen that dissolves in 1 ml of water [1] | TG analysis: weight loss beginning due to decomposition (temperature) [2]
1 | CC(C)Cc1ccc(C(C)C(=O)O)cc1 (stereo not shown) [ibuprofen, 2-[4-(2-methylpropyl)phenyl]propanoic acid] | Less than 1 mg | 
2 | (+)-tramadol-(S)-ibuprofen salt |  | 130 °C
3 | CC(C)Cc1ccc([C@H](C)C(=O)O)cc1.COc1cccc([C@]2(O)CCCC[C@H]2CN(C)C)c1 [(−)-tramadol-(S)-ibuprofen salt, Phase 1] |  | 140 °C
4 | CC(C)Cc1ccc([C@H](C)C(=O)O)cc1.COc1cccc([C@]2(O)CCCC[C@H]2CN(C)C)c1 [(−)-tramadol-(S)-ibuprofen salt, Phase 2, (−)-tramadol-(S)-ibuprofen Salt, Phase 2] |  | 130 °C
